# From PubChem BioAssay (NCI)
#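 Protocol summary: plate cells (96-well), add compound at 5 concentrations, incubate 48 h, interpolate endpoints linearly. TGI marks complete inhibition of growth.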
# How the values were obtained:
# Test in all cases: growth of human tumour cells (NCI), 48 h
# LOX IMVI melanoma = test system: LOX IMVI melanoma
# HCT-15 colon = test system: HCT-15 colon
# NCI-H522 lung = test system: NCI-H522 lung
# NCI-H226 lung = test system: NCI-H226 lung
# SK-MEL-5 melanoma = test system: SK-MEL-5 melanoma
# HT29 colon = test system: HT29 colon
# HOP-92 NSCLC = test system: HOP-92 NSCLC
# COLO 205 colon = test system: COLO 205 colon
# ACHN renal = test system: ACHN renal
# 786-0 renal = test system: 786-0 renal
# NCI/ADR-RES ovarian = test system: NCI/ADR-RES ovarian
# SK-MEL-28 melanoma = test system: SK-MEL-28 melanoma
SMILES,TGI (LOX IMVI melanoma),TGI (HCT-15 colon),TGI (NCI-H522 lung),TGI (NCI-H226 lung),TGI (SK-MEL-5 melanoma),TGI (HT29 colon),TGI (HOP-92 NSCLC),TGI (COLO 205 colon),TGI (ACHN renal),TGI (786-0 renal),TGI (NCI/ADR-RES ovarian),TGI (SK-MEL-28 melanoma)
Cc1ccc(Nc2cc(=O)[nH]c(=S)[nH]2)cc1,> 100 µM,> 100 µM,> 100 µM,> 100 µM,> 100 µM,> 100 µM,> 100 µM,> 100 µM,> 100 µM,> 100 µM,> 100 µM,
CC[C@@H](/C=C\CCC1(C[C@H](O)CCC=C(C)C)OCCO1)O[Si](C(C)C)(C(C)C)C(C)C,38.8 µM,42.8 µM,39.2 µM,35.9 µM,37.5 µM,65.9 µM,66.8 µM,40.1 µM,33.6 µM,31.4 µM,53.9 µM,73.4 µM
CCOC(=O)CCC(NC(=O)c1ccc(N2CCN(c3c(C)nc(N)nc3N)CC2)cc1)C(=O)OCC (stereo not given),> 100 µM,> 100 µM,> 100 µM,> 100 µM,19.6 µM,> 100 µM,> 100 µM,> 100 µM,> 100 µM,> 100 µM,> 100 µM,> 47.4 µM
C=CC[C@H]1[C@H](O[Si](C)(C)C(C)(C)C)C=CC(=O)[C@@H]1CC(=O)N(Cc1ccccc1)Cc1ccccc1,26.9 µM,35.6 µM,> 100 µM,46.7 µM,20.7 µM,29.2 µM,8.51 µM,25.6 µM,> 100 µM,84.9 µM,80.6 µM,> 100 µM
Nc1nc(Cl)cc(Nc2cc(Cl)cc(Cl)c2)n1,32.3 µM,42.6 µM,24.3 µM,40.8 µM,33.9 µM,30.6 µM,40.3 µM,41.4 µM,56.8 µM,33.7 µM,44 µM,
CN(C)c1ccc(/C=C/C=C(/C#N)c2ccccc2)cc1,> 74.3 µM,> 100 µM,> 65.7 µM,> 100 µM,> 100 µM,40.6 µM,> 100 µM,> 92.1 µM,> 100 µM,> 62.7 µM,35.3 µM,> 100 µM
c1cc2c(c(-c3c4ccccc4nc4ccccc34)c1)CC1(CC2)OCCO1,> 100 µM,> 100 µM,> 100 µM,> 100 µM,> 100 µM,,> 100 µM,> 100 µM,> 100 µM,> 100 µM,> 100 µM,> 100 µM
Cc1ccc(N=C2C(=O)C3=C(OC(C)(C)CC3)c3ccccc32)cc1,,,3 µM,> 20.4 µM,2.28 µM,1.15 µM,3.2 µM,3.29 µM,1.54 µM,3.18 µM,1.75 µM,4.69 µM
S=c1[nH]c(=S)c2cc(Sc3ccc4[nH]c(=S)[nH]c(=S)c4c3)ccc2[nH]1,,> 100 µM,> 100 µM,52.5 µM,> 100 µM,> 100 µM,57.4 µM,52.4 µM,> 100 µM,40 µM,> 100 µM,> 100 µM
Cc1nc2c(sc3nc4ccccc4n32)c(=O)[nH]1,> 100 µM,> 100 µM,> 100 µM,> 100 µM,> 100 µM,,> 100 µM,> 100 µM,> 100 µM,> 100 µM,> 100 µM,> 100 µM
CC(C)=CCC/C(C)=C/CC/C(C)=C/CC/C(C)=C/CC/C(C)=C\CC/C(C)=C/CC/C(C)=C/CC/C(C)=C/Cc1cc(O)ccc1O,,> 33.4 µM,4.34 µM,4.65 µM,,3.81 µM,> 32.8 µM,> 100 µM,> 39.8 µM,4.09 µM,1.92 µM,> 100 µM
COc1ccccc1N1CCN(Cn2c(=O)oc3cccnc32)CC1,> 100 µM,> 100 µM,> 100 µM,,> 100 µM,> 100 µM,> 100 µM,,> 100 µM,> 100 µM,> 100 µM,> 100 µM
COc1ccc(-c2cc(-c3cc(OC)c(OC)c(OC)c3)cc(-c3cc4ccccc4oc3=O)n2)cc1,> 100 µM,> 100 µM,34.5 µM,22.2 µM,18.6 µM,> 100 µM,16.8 µM,> 100 µM,16.3 µM,5.34 µM,31.6 µM,
COc1ccc2c3c1OC1c4[nH]c5ccccc5c4CC4(O)C(C2)N(C)CCC314 (stereo not given),52 µM,> 100 µM,81.4 µM,,29.5 µM,49.3 µM,48.7 µM,37.7 µM,75.6 µM,34.3 µM,> 100 µM,34.5 µM
